Measured values taken from paper PMC9501899 (Journal of the American Chemical Society, 2022).
Where two headings read alike, the source gives them in different places.

Columns and labels:
Rab10-pThr73 [1] = test: Rab10 dephosphorylation in G2019S LRRK2 MEFs by Western blotting; format: cell-based, mouse
Protocol: These PROTACs were then biologically evaluated in mouse embryonic fibroblasts (MEFs) by Western blotting. Briefly, MEFs were treated with compounds at 33 nM and 1 μM for 4 h (Figure 2) and 24 h (Figure S2) separately, and the intracellular level of LRRK2, phosphorylated LRRK2 at Ser935, and phosphorylated Rab10 (pRab10) at Thr73 was determined. Rab10[5],[49] is one of the bona fide substrates of LRRK2, whose phosphorylation status is directly affected by the LRRK2 kinase activity and protein level. Phosphorylation of LRRK2 at Ser935 is a well-studied biomarker site used to assess the efficacy of type 1 LRRK2 inhibitors.[30]
Primary MEFs were generated as described in a previous study.[80] Briefly, the uterine horn was collected from adult female mice at day E12.5 and transferred to a 10 cm tissue culture dish containing cold PBS. Two forceps were used to tear the yolk sacs to isolate each embryo. Forceps were cleaned thoroughly with 70% ethanol between each embryo isolation. The embryos were culled, and a tissue piece was collected in a polymerase chain reaction (PCR) tube for genotyping. The red tissue of the embryo was removed, and the remainder was minced with a scalpel blade and incubated with a 7.5 mL trypsin–ethylenediaminetetraacetic acid (EDTA) solution for 10 min in a 37 °C, 5% CO2 tissue culture incubator. The dish was removed from the incubator and checked under a light microscope for single cells. Complete media (7.5 mL) was added to the trypsinized cells, and the cell suspension was transferred to a 15 mL Falcon tube and centrifuged at 1200 rpm for 5 min at room temperature. The trypsin was aspirated, the cell pellet was resuspended in a 5 mL fresh complete media, and the cell suspension was plated in a 60 mm tissue culture dish and incubated in a 37 °C, 5% CO2 tissue culture incubator. The MEFs at this stage were considered as passage 0 and were passaged and expanded for experimental use once the genotype was confirmed by allelic sequencing and immunoblotting. MEFs were cultured in Dulbecco’s modified Eagle’s medium (DMEM) containing 10% (v/v) fetal bovine serum (FBS), 2 mM L-glutamine, 100 U/mL penicillin, and 100 μg/mL streptomycin supplemented with 1× nonessential amino acids and 1 mM sodium pyruvate.
Culturing and passaging of adherent cell lines were carried out using an aseptic technique in CL1 or CL2 (for PBMC isolation) biological safety cabinets. All cells were incubated in a 37 °C incubator with 5% CO2. Cell lines were regularly tested for mycoplasma contamination. For Western blot assay, the cells were seeded in six-well plates. For immunoprecipitation of LRRK2, SH-SY5Y cells (cultured in DMEM-F12, supplemented with 15% (v/v) FBS, 100 U/mL penicillin and 100 μg/mL streptomycin, 1× nonessential amino acids, and 1 mM sodium pyruvate) were seeded in a 10 cm dish. All cells were treated with the indicated compounds such that the final concentration of DMSO was 0.1%. Following the treatment of cells with compounds at indicated concentrations and time periods, the media was removed and the cells were washed with PBS and lysed in a 100 μL ice-cold complete lysis buffer containing 50 mM tris–HCl pH 7.4, 1 mM EGTA, 10 mM 2-glycerophosphate, 50 mM sodium fluoride, 5 mM sodium pyrophosphate, 270 mM sucrose, supplemented with 1 μg/mL microcystin-LR, 1 mM sodium orthovanadate, complete EDTA-free protease inhibitor cocktail (Roche), and 1% (v/v) Triton X-100. The cells were immediately placed on ice and were scraped and collected into 1.5 mL Eppendorf tubes. Cell lysates were incubated on ice for 10 min prior to centrifugation at 15 000g at 4 °C for 15 min.

LRRK2-NanoLuc = molecular target: T1, LRRK2-NanoLuc (Homo sapiens, UniProt Q5S007); test: NanoBRET LRRK2 target engagement assay in HEK293 cells; format: binding; details: for IC50: permeabilized HEK293 cells
T1 construct: host or cells: HEK293
T1 sequence (Q5S007 whole entry): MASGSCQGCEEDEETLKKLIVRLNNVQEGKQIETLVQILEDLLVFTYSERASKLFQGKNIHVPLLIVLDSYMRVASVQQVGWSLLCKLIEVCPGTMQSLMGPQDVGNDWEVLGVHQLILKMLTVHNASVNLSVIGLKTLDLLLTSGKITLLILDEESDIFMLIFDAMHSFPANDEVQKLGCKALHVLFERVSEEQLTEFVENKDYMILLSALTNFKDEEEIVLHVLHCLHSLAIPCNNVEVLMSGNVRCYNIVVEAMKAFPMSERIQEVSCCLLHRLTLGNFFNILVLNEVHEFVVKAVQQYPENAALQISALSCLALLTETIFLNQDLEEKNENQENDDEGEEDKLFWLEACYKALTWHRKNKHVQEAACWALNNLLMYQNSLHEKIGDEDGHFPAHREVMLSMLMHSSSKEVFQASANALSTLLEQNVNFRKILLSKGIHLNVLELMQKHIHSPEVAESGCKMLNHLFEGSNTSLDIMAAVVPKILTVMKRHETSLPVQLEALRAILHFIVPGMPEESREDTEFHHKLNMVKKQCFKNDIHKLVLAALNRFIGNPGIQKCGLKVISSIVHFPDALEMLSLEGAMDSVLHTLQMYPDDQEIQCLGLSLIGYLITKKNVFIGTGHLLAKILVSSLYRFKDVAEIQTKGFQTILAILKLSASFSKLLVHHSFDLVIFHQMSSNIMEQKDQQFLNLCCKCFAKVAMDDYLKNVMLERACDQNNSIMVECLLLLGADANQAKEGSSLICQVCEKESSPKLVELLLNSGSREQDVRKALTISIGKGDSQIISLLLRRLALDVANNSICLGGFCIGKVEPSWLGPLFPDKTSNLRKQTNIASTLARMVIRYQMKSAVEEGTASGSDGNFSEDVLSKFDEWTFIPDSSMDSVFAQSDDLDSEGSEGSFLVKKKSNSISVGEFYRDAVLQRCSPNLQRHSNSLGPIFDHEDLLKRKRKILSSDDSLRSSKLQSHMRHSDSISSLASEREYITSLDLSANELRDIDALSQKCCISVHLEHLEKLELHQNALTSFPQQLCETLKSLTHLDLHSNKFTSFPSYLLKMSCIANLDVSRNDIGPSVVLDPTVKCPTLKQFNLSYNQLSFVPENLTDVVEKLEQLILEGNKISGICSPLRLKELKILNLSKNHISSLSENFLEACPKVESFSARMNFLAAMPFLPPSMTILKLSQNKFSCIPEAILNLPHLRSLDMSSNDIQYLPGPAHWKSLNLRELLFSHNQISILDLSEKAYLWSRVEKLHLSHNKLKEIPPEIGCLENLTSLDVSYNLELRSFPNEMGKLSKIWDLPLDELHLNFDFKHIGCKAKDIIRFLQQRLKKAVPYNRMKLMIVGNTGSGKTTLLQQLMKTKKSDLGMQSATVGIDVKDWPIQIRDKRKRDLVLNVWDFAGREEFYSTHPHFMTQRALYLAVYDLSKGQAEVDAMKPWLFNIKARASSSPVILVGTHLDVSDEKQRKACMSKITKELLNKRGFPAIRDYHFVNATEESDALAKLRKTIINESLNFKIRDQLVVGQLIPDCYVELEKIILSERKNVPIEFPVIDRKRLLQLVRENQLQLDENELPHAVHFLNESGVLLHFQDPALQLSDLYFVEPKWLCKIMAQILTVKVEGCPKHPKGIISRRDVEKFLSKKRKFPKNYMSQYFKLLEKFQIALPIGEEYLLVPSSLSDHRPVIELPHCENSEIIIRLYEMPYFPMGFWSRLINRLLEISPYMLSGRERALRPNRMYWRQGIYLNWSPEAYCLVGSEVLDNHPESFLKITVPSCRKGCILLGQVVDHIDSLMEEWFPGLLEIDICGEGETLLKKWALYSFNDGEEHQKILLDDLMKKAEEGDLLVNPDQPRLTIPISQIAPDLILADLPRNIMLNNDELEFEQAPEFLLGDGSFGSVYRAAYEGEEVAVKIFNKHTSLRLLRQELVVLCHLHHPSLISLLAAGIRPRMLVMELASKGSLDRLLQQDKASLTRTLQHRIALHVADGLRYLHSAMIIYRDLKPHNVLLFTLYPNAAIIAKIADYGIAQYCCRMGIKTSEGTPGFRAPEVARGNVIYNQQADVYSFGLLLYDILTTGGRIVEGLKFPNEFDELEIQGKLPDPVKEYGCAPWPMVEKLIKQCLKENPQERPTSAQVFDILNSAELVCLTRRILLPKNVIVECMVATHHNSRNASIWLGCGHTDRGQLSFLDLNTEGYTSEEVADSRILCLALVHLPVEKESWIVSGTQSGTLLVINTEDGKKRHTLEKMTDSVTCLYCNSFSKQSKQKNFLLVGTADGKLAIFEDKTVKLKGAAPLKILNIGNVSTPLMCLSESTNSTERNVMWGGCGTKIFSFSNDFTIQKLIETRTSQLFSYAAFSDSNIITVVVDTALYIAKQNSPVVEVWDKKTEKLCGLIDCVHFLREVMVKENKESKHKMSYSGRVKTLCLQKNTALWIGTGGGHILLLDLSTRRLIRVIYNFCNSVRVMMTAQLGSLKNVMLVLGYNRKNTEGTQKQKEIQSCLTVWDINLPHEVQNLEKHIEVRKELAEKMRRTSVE
Protocol: Figure 9 Binding affinities to VHL and LRRK2. (A) Binding affinity of the tested compounds to VHL using the FP assay. […] NanoBRET target engagement assays of tested compounds to VHL (B) and LRRK2 (C) in permeabilized and live-cell modes. The indicated compounds were titrated into HEK293 cells transfected with VHL-NanoLuc (B) or LRRK2-NanoLuc fusion (C) in the presence of VHL tracer (B) or LRRK2 tracer (C). 0.25 and 0.5 μM VHL tracers were used for the permeabilized and live mode VHL engagement assays separately. 0.125 and 0.5 μM of LRRK2 tracer were used for the permeabilized and live mode LRRK2 engagement assays separately. The fractional occupancy of the tracers is plotted against the tested compounds’ concentrations and fitted into “nonlinear regression, one site-log IC50” to obtain the IC50 values of each compound against both permeabilized and live cells, separately. Data points are presented as mean ± SEM from three independent experiments. (D) The IC50 ratios between permeabilized and live mode target engagements of each compound were used to compare their permeabilities.
For VHL and LRRK2 target engagement experiments in live and permeabilized cells, the HEK293 cells were transfected with the VHL-NanoLuc fusion vector (Promega, N275A) or LRRK2-NanoLuc fusion vector (Promega, NV3401) following Promega’s protocol and seeded into a white 384-well plate (Corning3570) at a density of 6000 cells/well. […] The filtered luminescence was measured within 10 min following the addition of the substrate on a GloMax Discover microplate reader (Promega) or a PHERAstar (BMG LABTECH) plate reader equipped with a 450 nm bandpass filter (donor) and a 600 nm long-pass filter (acceptor). […] The plates were then cooled down, and a NanoBRET NanoGlo Substrate and an Extracellular NanoLuc Inhibitor (Promega, N2160) were added before performing the same NanoBRET reading as the permeabilized mode on plate readers. […]

Rab10-pThr73 [2] = test: Rab10 dephosphorylation in G2019S LRRK2 MEFs by Western blotting; format: cell-based, mouse; details: 0.3 µM
[3] = Mus musculus, 4 h, G2019S LRRK2 MEFs, read-out: EC50 G2019S pRab10

CNc1nc(Nc2ccc(C(=O)N3CCN(CCOCCOCCSC(C)(C)[C@H](NC(=O)C4(F)CC4)C(=O)N4C[C@H](O)C[C@H]4C(=O)NCc4ccc(-c5scnc5C)cc4)CC3)cc2OC)ncc1Cl [SD75]
GS-pRab10 percent label at the end of the time curve (Rab10-pThr73 [1]; 1 µM): 74%
pRab10 dephosphorylated (Rab10-pThr73 [1]; 1 µM): 75–90%
EC50 (Rab10-pThr73 [1]; Mus musculus, 24 h, G2019S LRRK2 MEFs, read-out: EC50 for the dephosphorylation of Rab10 (GS-pRab10)): 379 nM
LRRK2 IC50 Permeabilized/IC50 Live (LRRK2-NanoLuc; ratio used to compare permeabilities): 0.43

CNc1nc(Nc2ccc(C(=O)N3CCN(C[C@H]4CC[C@H](CSC(C)(C)[C@H](NC(=O)C5(F)CC5)C(=O)N5C[C@H](O)CC5C(=O)NCc5ccc(-c6scnc6C)cc5)CC4)CC3)cc2OC)ncc1Cl (stereo partly drawn) [XL01126, (2S,4R)-1-((R)-3-((((1R,4R)-4-((4-(4-((5-Chloro-4-(methylamino)pyrimidin-2-yl)amino)-3-methoxybenzoyl)piperazin-1-yl)methyl)cyclohexyl)methyl)thio)-2-(1-fluorocyclopropane-1-carboxamido)-3-methylbutanoyl)-4-hydroxy-N-(4-(4-methylthiazol-5-yl)benzyl)pyrrolidine-2-carboxamide]
inhibition at 0.033 µM (Rab10-pThr73 [1]; Mus musculus, 33 nM/4 h, G2019S LRRK2 MEFs, read-out: pRab10 inhibited): > 60%
EC50 (Rab10-pThr73 [1]; [3]): 15 nM
GS-pRab10 percent label at the end of the time curve (Rab10-pThr73 [2]): 92%
IC50 (LRRK2-NanoLuc): 2600 nM

CNc1nc(Nc2ccc(C(=O)N3CCN(C[C@H]4CC[C@@H](CSC(C)(C)[C@H](NC(=O)C5(F)CC5)C(=O)N5C[C@H](O)CC5C(=O)NCc5ccc(-c6scnc6C)cc5)CC4)CC3)cc2OC)ncc1Cl (stereo partly shown) [XL01134]
pRab10 inhibited (Rab10-pThr73 [1]; 33 nM/4 h, G2019S LRRK2 MEFs): > 60%
IC50 (Rab10-pThr73 [1]; Mus musculus, 4 h, G2019S LRRK2 MEFs, read-out: GS-pRab10 IC50): 12 nM
GS-pRab10 percent label at the end of the time curve (Rab10-pThr73 [2]): 87%
IC50 (LRRK2-NanoLuc): 2000 nM

CNc1nc(Nc2ccc(C(=O)N3CCN(C[C@H]4CC[C@H](CSC(C)(C)[C@H](NC(=O)C5(F)CC5)C(=O)N5C[C@@H](O)C[C@H]5C(=O)NCc5ccc(-c6scnc6C)cc5)CC4)CC3)cc2OC)ncc1Cl [cis-XL01126, (2S,4S)-1-((R)-3-((((1R,4R)-4-((4-(4-((5-Chloro-4-(methylamino)pyrimidin-2-yl)amino)-3-methoxybenzoyl)piperazin-1-yl)methyl)cyclohexyl)methyl)thio)-2-(1-fluorocyclopropane-1-carboxamido)-3-methylbutanoyl)-4-hydroxy-N-(4-(4-methylthiazol-5-yl)benzyl)pyrrolidine-2-carboxamide]
EC50 (Rab10-pThr73 [1]; [3]): 116 nM
